# Experimental data from patent publication US5422352A, “Slimming pharmaceutical composition” (Nycomed Dak A/S, priority 1989, dated 1995).
# Counter-ions that a name gives are not always drawn.
# How the values were obtained:
# [1] = safety evaluation in healthy volunteers: side effects, blood pressure, heart rate (Example 2); assay type: in vivo, human
# Experimental: Arterial blood pressure was measured in the right arm by a sphygmomanometer a.m. Riva-Rocci, and heart rate was determined by palpation of the peripheral heart rate in the ipsilateral radial artery. These measurements were performed after each sampling of blood.
# A "Trimline" apparatus manufactured by PyMaH (Copenhagen) was used to measure the arterial blood pressure. A cuff 12-14 cm in width was employed. […] The diastolic blood pressure was determined as the manometer pressure when the Korotkoff sound quality changes from tapping to muffled.
# At the end of each study comprising oral administration of the actual test substance, subjective feelings of side-effects were assessed by questioning the experimental subjects.
# [2] = adverse drug reactions in obese patients, 24 weeks (Example 5); assay type: in vivo, human; details: for Patients complaining of adverse drug reactions / Patients withdrawn due to adverse drug reactions: 24 weeks; for adverse reactions / withdrawal symptoms (in words): human, in vivo
# Text: 14 days after discontinuation of the treatment, a psychiatrist recorded any inconveniences the patient might have had during this period and physical and psychological symptoms were registered.
# [3] = blood pressure and heart rate in obese patients, 24 weeks (Example 5); assay type: in vivo, human; details: week 24; for Average heart rate decrease / Average heart rate decrease, % of initial value: negative = increase
# Experimental: Blood pressure was measured with a Trimline Sphygmomanometer (PyMaH) by the investigator every 4 weeks. After at least 10 minutes rest, the measurements were carried out in the right arm of the patient a.m. Riva-Rocci with the patient being positioned in a sitting position. A cuff of 14 to 16 cm width was employed. […] The diastolic blood pressure was determined at the manometer pressure when the Korotkoff sound quality changes from tapping to muffled.
# The heart rate was determined by palpation of the peripheral heart rate in the right radial artery.
# (§1) The mean difference of blood pressure, heart rate and laboratory data from the initial values (week 0) at week 12 and at week 24 was compared to initial values for each treatment group by Students' one sample t-test (SAS). Comparison of the treatment groups at a particular visit was done by one-way analysis of variance (SAS.GLM). The difference from initial values was used in order to prevent chance events influencing the results. Patients with high values, for instance, who dropped out would thus influence the mean value at the next control, without a real difference being present.
# [4] = weight reducing effect in obese patients, 24 weeks, double blind (Example 5); assay type: in vivo, human
# Experimental: The study was designed as a double blind, randomised, parallel study with 4 treatment groups in a 2×2 factorial design.
# All patients were treated with the trial medication and prescribed a 4.2 MJ/day diet for 24 weeks.
# B. Ephedrine group: Ephedrine tablets containing 20 mg ephedrine hydrochloride.
# C. Caffeine group: Caffeine tablets containing 200 mg caffeine.
# The patients were prescribed 1 tablet 3 times daily one hour before meals together with a 4.2 MJ/day diet consisting of NUPO® protein nutrition powder (33) (1.6 MJ/day) and free additional choice of food (2.6 MJ/day) for 24 weeks.
# The patients were weighed on a decimal scale by dietitians at each visit. A Seca electronic scale (model 707) was used. The weighing limit was 200 kg, with 100 g graduations. The scale was calibrated every week.
# The statistical analysis of weight loss was based on the logarithm of the initial body weight minus logarithm of the body weight at the actual visit.
# As the data was logarithmically transformed as expressed above, a negative value corresponds to a supra-additive effect. Nil corresponds to additive effect and a positive value corresponds to a sub-additive effect.
# [5] = laboratory methods in healthy volunteers: serum glucose, NEFA, glycerol (Example 2); assay type: in vivo, human; details: oral; for serum glucose (in words): vs placebo
# Experimental: Through the indwelling antecubital cannula, blood was sampled without stasis in iced syringes. The blood samples were then centrifuged at 4° C. and nonesterified fatty acids (NEFA) were immediately extracted from the blood samples and later determined as described in (22). The concentration of glucose in plasma was determined using the glucose oxidase method (23), the concentration of glycerol in plasma was determined as described by Laurell and Tibbling (24), the concentration of lactate in plasma was described using the method described by Noll (25), and the concentration of triglyceride in plasma was determined as described by Giegel (26). Blood samples for the determination of methylxanthine metabolites was collected in tubes containing reduced glutathione and ethylene glycol-bis(β-aminoethyl)-N,N,N',N'-tetraacetic acid (EGTA). Samples were immediately centrifuged and the plasma was stored at -40° C. until the determination of methylxanthines was performed (see Example 4). Immunoreactive insulin, pancreatic glucagon and C-peptide concentrations were measured in the plasma samples using radioimmunoassay kits purchased from Novo, Copenhagen. All plasma aliquots for determination of pancreatic hormones and methylxanthine metabolites were coded and analyzed in a random order to avoid any systematic error due to the order of analysis. The concentrations of sodium and potassium in the plasma samples were determined by flame spectrophotometry.
# [6] = thermogenic effect: energy expenditure in healthy volunteers by indirect calorimetry (Example 2); assay type: in vivo, human; details: for Mean energy expenditure during 3 hours: oral single dose, not placebo-corrected; for Energy expenditure greater than placebo: mean±SE, minimum figure; for thermogenic effect (in words): human, in vivo
# Experimental: The study was conducted in two parts. The first part was designed as a placebo-controlled, double-blind trial on the effect of 3 different doses of caffeine, 3 different doses of ephedrine and 2 placebo samples. The order of the tests were not entirely randomized, but organized in a sequence that allowed testing for a carry-over effect.
# 6 healthy volunteers of normal weight (3 of each sex) aged between 20 and 32 were included after informed consent was obtained. The average age of the 6 volunteers was 25 (±1) years, height, 179 (±11) cm; body weight, 70 (±13) kg; percentage of overweight, -1.7 (±8.3) % and body fat, 13 (±3) kg. The numbers in parenthesis are the standard deviation. The percentages of overweight was calculated from the individual body weight (IBW) using the midpoint of the medium frame (MMF) given in the Metropolitan Life Insurance Company tables of desirable weights (1): [formula]
# A. Treatment with ephedrine comprising capsules with 10 mg, 20 mg or 40 mg of ephedrine hydrochloride, respectively.
# B. Treatment with caffeine comprising capsules with 100 mg, 200 mg or 400 mg of caffeine, respectively. […]
# The capsules were administered orally as single doses and swallowed with 300 ml of tap water (20° C.).
# All blood samples for determination of substrate, metabolite and hormone concentrations were collected form the antecubital vein. Blood samples were taken at -30, 0, 30, 60, 90, 120, 150 and 180 minutes relative to the capsule intake (time 0). The subjects breathed through a low-resistance Scuba one-way mouthpiece. After about 10 minutes of adaptation, expiratory gas was collected in Douglas bags for 10 minute periods. Gas collection was made after each blood sampling.
# Energy expenditure was measured by indirect calorimetry. Expiratory gas was continuously analyzed for the content of oxygen and carbon dioxide with a Godart Rapox Oxygenmeter and a Beckman LB-1 Medical Gas Analyzer. Respiratory steady state was assumed to be present, when the end-expiratory carbon dioxide fraction was constant. Expiratory gas was collected in Douglas bags and analyzed for the content of oxygen and carbon dioxide with Radiometer gas-electrodes connected to an acid-base analyzer (PHM 71, Copenhagen, Denmark), and the volume of expiration gas was measured with a gas meter. […] The standard gasses were analyzed with a Scholander microtechnique with a measuring error on gas fraction being <0.0005%, i.e. the error on measurement of expired gas being within ±0.1-0.2% (19). […] A fixed protein catabolism was assumed, since the error on calculating the energy expenditure by omitting the exact correction from urinary nitrogen was negligible (20). The energy expenditure was calculated taking de novo lipogenesis into account (21).
# The responses to a test substance were estimated separately for each subject as the difference between the integrated numerical area of the response curve (by a trapezoidal approach) and the rectangular area determined by the basal values. To estimate the predictive, theoretical effect of combinations of ephedrine and caffeine, the single dose responses were added after subtracting the average placebo response. This calculation was performed separately for each subject before statistical analysis. A two-way analysis of variance for randomized blocks was performed (28) to test differences between experimental periods within the same experiment and to test differences between the responses to different stimuli (test substances). Post-hoc testing was applied to compare two means (28).
# [7] = laboratory methods: fasting serum glucose, triglycerides, cholesterol in obese patients (Example 5); assay type: in vivo, human
# Experimental: Blood and urine samples for laboratory tests were taken before entry, and after 12 and 24 weeks.
# Metabolic factors: In order to evaluate changes in the glucose and lipid metabolism of the patients during the study, triglyceride acid (TGA), cholesterol and fasting glucose were analyzed.
# All clinical-chemical analyses apart from TGA and test strips for urine, were carried out at Department of Clinical Chemistry, Hvidovre Hospital, in accordance with their routine methods and assays, including the department's running quality control. The methods and the assays are routine procedures and are well-documented (7,40-48). TGA was analyzed and test strips for urine assessed at the Department of Internal Medicine, Division of Endocrinology, Hvidovre Hospital's own laboratory following the same routine procedures as above (26).
# as §1
# [8] = 3 ppm (3 mg/kg feed); cited from earlier work
# resting skeletal muscle = details: in vivo; cited from earlier work
# [9] = ephedrine 50 mg; ephedrine plus caffeine 50 mg+100 mg; oral, 4 months; cited from earlier work
# [10] = 18 weeks, 2+2+1 tablet per day; cited from earlier work
# [11] = week 12, difference from initial
# [12] = week 24, difference from initial
Structure (SMILES),Patients complaining of adverse drug reactions [2] [patients],Patients withdrawn due to adverse drug reactions [2],adverse reactions / withdrawal symptoms (in words) [2],Average diastolic blood pressure decrease [3] [mmHg],"Average diastolic blood pressure decrease, % of initial value [3] [%]",Average systolic blood pressure decrease [3] [mmHg],"Average systolic blood pressure decrease, % of initial value [3] [%]",Average heart rate decrease [3] [BPM],"Average heart rate decrease, % of initial value [3] [%]",serum nonesterified fatty acids and glycerol (in words) [5],serum glucose (in words) [5],thermogenic effect (in words) [6],"Mean difference in fasting serum glucose [7, 11] [mmol/L]","Mean difference in serum triglycerides [7, 11] [mmol/L]","Mean difference in fasting serum cholesterol [7, 12] [mmol/L]","Mean difference in fasting serum glucose [7, 12] [mmol/L]","Mean difference in serum triglycerides [7, 12] [mmol/L]",further results
"Cn1c(=O)c2c(ncn2C)n(C)c1=O [Caffeine, caffeine]",16,2,"Headache was reported by 27 patients, especially patients from the caffeine group",8.9,11.0,9.3,7.3,5.7,7.3,increased the concentrations of NEFA and glycerol in the serum,hyperglycemic effect,a significant relation between caffeine dose and thermogenic response (energy expenditure),-0.18,-0.11,-0.28,-0.42,-0.32,"side effects (in words) ([1]; 400 mg caffeine): The incidence of side effects after administration of the active compounds and placebo, respectively, was not significant, except for caffeine 400 mg (p<0.01); Average weight loss of the whole group ([4]; 24 weeks): 11.7 kg; Weight loss of one strongly deviant patient ([4]; 24 weeks, excluded from analysis): 42.6 kg; Relative body weight ([4]; week 4, 1 tablet 3 times daily, 4.2 MJ/day diet): 95.5%; Relative body weight ([4]; week 8): 93.0%; Relative body weight ([4]; week 12): 90.4%; Relative body weight ([4]; week 16): 89.3%; Relative body weight ([4]; week 20): 88.0%; Relative body weight ([4]; week 24): 87.6%; Energy expenditure/(placebo value) ([6]; 100 mg caffeine): 2.5; Mean energy expenditure during 3 hours ([6]; 100 mg caffeine): 15.4 kcal/3 h; Energy expenditure greater than placebo ([6]; 100 mg caffeine): 9.2±5.7 kcal/3 h; Energy expenditure/(placebo value) ([6]; 200 mg caffeine): 2.2; Mean energy expenditure during 3 hours ([6]; 200 mg caffeine): 13.4 kcal/3 h; Energy expenditure greater than placebo ([6]; 200 mg caffeine): 7.2±6.0 kcal/3 h; Energy expenditure/(placebo value) ([6]; 400 mg caffeine): 6.2; Mean energy expenditure during 3 hours ([6]; 400 mg caffeine): 38.6 kcal/3 h; Energy expenditure greater than placebo ([6]; 400 mg caffeine): 32.4±8.2 kcal/3 h; thermogenic effect (in words) ([6]; listed as caffeine): possess thermogenic activity"
CC(C)(C)NCC(O)c1ccc(O)c(CO)c1 (stereo not shown) [salbutamol],,,,,,,,,,,,,,,,,,fat and protein accretion (in words) [8]: decreases fat accretion and increases protein accretion in growing pigs
"CN[C@@H](C)[C@H](O)c1ccccc1 [Ephedrine, ephedrine hydrochloride]",20,1,"34 patient complained of hunger, especially those who had been treated with ephedrine",6.9,8.6,8.7,7.0,-3.1,-4.3,increased the concentrations of NEFA and glycerol in the serum,hyperglycemic effect,possess thermogenic activity,-0.55,-0.14,-0.18,-0.46,-0.66,systolic blood pressure and heart rate (in words) ([1]; 40 mg ephedrine hydrochloride): excessive increase in systolic blood pressure and heart rate; contribution of resting skeletal muscle to whole body thermogenesis induced (resting skeletal muscle): at least 50%; Energy expenditure/(placebo value) ([6]; 10 mg ephedrine hydrochloride): 3.5; Mean energy expenditure during 3 hours ([6]; 10 mg ephedrine hydrochloride): 22.2 kcal/3 h; Energy expenditure greater than placebo ([6]; 10 mg ephedrine hydrochloride): 16.0±10.9 kcal/3 h; Energy expenditure/(placebo value) ([6]; 20 mg ephedrine hydrochloride): 2.0; Mean energy expenditure during 3 hours ([6]; 20 mg ephedrine hydrochloride): 12.5 kcal/3 h; Energy expenditure greater than placebo ([6]; 20 mg ephedrine hydrochloride): 6.3±5.3 kcal/3 h; Energy expenditure/(placebo value) ([6]; 40 mg ephedrine hydrochloride): 3.0; Mean energy expenditure during 3 hours ([6]; 40 mg ephedrine hydrochloride): 18.3 kcal/3 h; Energy expenditure greater than placebo ([6]; 40 mg ephedrine hydrochloride): 12.1±4.9 kcal/3 h; weight loss (in words) [9]: no significant difference in weight loss; average weight loss [10]: 7.9 kg
